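Compound exposure: 48 hours, 5 concentrations, 96-well plates. TGI is the concentration that stops growth completely.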
How the values were obtained:
Experiment in all cases: inhibition of tumour cell growth, NCI panel, 48 h
MOLT-4 leukemia = tested on: MOLT-4 leukemia
OVCAR-5 ovarian = tested on: OVCAR-5 ovarian
OVCAR-8 ovarian = tested on: OVCAR-8 ovarian
SF-539 CNS = tested on: SF-539 CNS
CCRF-CEM leukemia = tested on: CCRF-CEM leukemia
PC-3 prostate = tested on: PC-3 prostate
RPMI-8226 leukemia = tested on: RPMI-8226 leukemia
SN12C renal = tested on: SN12C renal
K-562 leukemia = tested on: K-562 leukemia
M14 melanoma = tested on: M14 melanoma
CAKI-1 renal = tested on: CAKI-1 renal
SK-MEL-28 melanoma = tested on: SK-MEL-28 melanoma

Row | Structure (SMILES) | TGI (MOLT-4 leukemia) | TGI (OVCAR-5 ovarian) | TGI (OVCAR-8 ovarian) | TGI (SF-539 CNS) | TGI (CCRF-CEM leukemia) | TGI (PC-3 prostate) | TGI (RPMI-8226 leukemia) | TGI (SN12C renal) | TGI (K-562 leukemia) | TGI (M14 melanoma) | TGI (CAKI-1 renal) | TGI (SK-MEL-28 melanoma)
1 | COc1cc(C)c(/C=C2/N=C(c3ccccc3)OC2=O)c([N+](=O)[O-])c1OC | > 100 µM | > 100 µM | > 100 µM | > 100 µM | > 100 µM | > 100 µM | > 100 µM | > 100 µM | > 100 µM | > 100 µM | > 100 µM | > 100 µM
2 | Oc1ccc([C@H]2c3c(O)cc(O)cc3C3c4c(cc(O)cc4[C@@H]2[C@H]2c4cc(O)cc5c4C(c4cc(O)cc(O)c4[C@@H]2c2ccc(O)cc2)[C@@H](c2ccc(O)cc2)O5)O[C@@H]3c2ccc(O)cc2)cc1 (stereo partly drawn) | > 100 µM | > 100 µM | > 100 µM | 5.33 µM | > 100 µM | > 100 µM | > 100 µM | > 100 µM | > 100 µM | > 100 µM | > 100 µM | 0.972 µM
3 | COc1ccc(/C=C2/CSCC3=C2NC(=S)NC3c2ccc(OC)c(OC)c2OC)c(OC)c1OC (stereo not drawn) | > 100 µM | 57.5 µM | > 100 µM | 49.5 µM | > 100 µM | 46.2 µM | > 100 µM | 71.8 µM | > 100 µM | 32.6 µM | 92.2 µM | 81.9 µM
4 | Cc1cc(Cl)nc2nc(Cl)c(N)cc12 | > 22.6 µM | 34 µM | 8.55 µM | 30.6 µM | > 19.7 µM | 30.4 µM | 5.74 µM | 3.21 µM | > 100 µM | 25.6 µM | 0.871 µM | 6.21 µM
5 | CCOC(=O)C(NC(=O)c1ccccc1)(Nc1ccc(S(=O)(=O)Nc2ncccn2)cc1)C(F)(F)F (stereo not drawn) | > 100 µM | > 100 µM | > 100 µM | > 100 µM | > 100 µM | > 100 µM | > 100 µM | > 100 µM | > 100 µM | > 100 µM | > 100 µM | > 100 µM
6 | COc1cc2c(c(OC)c1OC)C(=O)[C@@H]1[C@H]2N1C(=O)NCCCl | > 100 µM | > 100 µM | > 100 µM | > 100 µM | > 100 µM | > 100 µM | > 100 µM | > 100 µM | > 100 µM | > 100 µM | > 100 µM | > 100 µM
7 | Cc1ccc(C(=O)Nc2ccc(CP(=O)(O)O)cc2)cc1NC(=O)c1cccc(N)c1 | > 100 µM | > 100 µM | > 100 µM | > 100 µM | > 100 µM | > 100 µM | > 100 µM | > 100 µM | > 100 µM | > 100 µM | > 100 µM | > 100 µM
8 | NC(N)=NS(=O)(=O)c1ccc(N/N=C2/CCOC2=O)cc1 | > 100 µM | > 100 µM | > 100 µM | > 100 µM | > 100 µM | > 100 µM | > 100 µM | > 100 µM | > 100 µM | > 100 µM | > 100 µM | > 100 µM
9 | Cc1nc(SCC(=O)Nc2ccc(Cl)cc2)c2sc(=S)n(-c3ccccc3)c2n1 | > 10 µM | > 10 µM | > 10 µM | > 10 µM | > 10 µM | > 10 µM | > 10 µM | > 10 µM | > 10 µM | > 10 µM | > 10 µM | > 10 µM
10 | CC(=O)Oc1cc(S(=O)(=O)Nc2n[nH]c(Nc3ccc(C)cc3)n2)c(S)cc1Cl | > 100 µM | > 100 µM | > 100 µM | > 100 µM | > 100 µM | > 100 µM | > 100 µM | > 100 µM | > 100 µM | > 100 µM | > 100 µM | > 100 µM
11 | Cc1cc(S(=O)(=O)N2CCNNC2=O)c(S)cc1Cl | > 100 µM | > 100 µM | > 100 µM | > 100 µM | > 100 µM | > 100 µM | > 100 µM | > 100 µM | > 100 µM | > 100 µM | > 100 µM | 59.6 µM
12 | S=C(N/N=C(\c1ccccc1)c1ccccn1)NC1CCCCC1 | > 100 µM | > 100 µM | 3.44 µM | > 100 µM | > 100 µM | > 100 µM | > 100 µM | > 100 µM | > 100 µM | > 100 µM | > 100 µM | > 100 µM
13 | COc1cc(C2C3=C(COC3=O)Oc3cc4c(cc32)OCO4)ccc1O (stereo not drawn) | > 100 µM | > 100 µM | 29.5 µM | 1.03 µM | > 100 µM | > 83.2 µM | > 63.2 µM | > 100 µM | > 100 µM | > 100 µM | 0.438 µM | > 100 µM
14 | COC(=O)/C=C\C(C#N)(C#N)N=Cc1cccc(OC)c1 | 17.7 µM | 20.1 µM | 10.5 µM | 7.83 µM | > 50.8 µM | 29.5 µM | > 28 µM | 27.1 µM | > 100 µM | 10.4 µM | 5.17 µM | 29.4 µM
15 | CCCNC(=S)N/N=C(\C)c1ccc(S(=O)(=O)N(C)c2ccccc2)cc1 | > 100 µM | > 100 µM | > 100 µM | 21.7 µM | > 31.6 µM | > 100 µM | > 31.6 µM | > 100 µM | > 100 µM | > 87.4 µM | 97.7 µM | > 100 µM
16 | CCNC(=O)c1cc(Cl)ccc1NC(=O)C12CC3CC(CC(C3)C1)C2 | > 100 µM | > 100 µM | > 100 µM | > 100 µM | > 100 µM | > 100 µM | 86.7 µM | > 100 µM | > 100 µM | > 100 µM | > 100 µM | > 100 µM
17 | CN(CC(=O)O)c1ncc2c(n1)C=CCC2 | > 100 µM | > 100 µM | > 100 µM | > 100 µM | > 100 µM | > 100 µM | > 100 µM | > 100 µM | > 100 µM | > 100 µM | > 100 µM | > 100 µM
18 | COc1cc(-c2nc3ccc(N4CCN(C)CC4)cc3[nH]2)c(OC)c2[nH]c(COC(C)=O)nc12 | > 100 µM | > 100 µM | > 100 µM | > 100 µM | > 100 µM | > 100 µM | > 100 µM | > 100 µM | > 100 µM | 35 µM | > 100 µM | > 100 µM
19 | COc1ccc([N+](=O)[O-])c2c(NCCCN(C)C)ccnc12 | 8.12 µM | 42.4 µM | > 48.5 µM | 17 µM | 61.9 µM | 30.8 µM | 6.53 µM | 34 µM | 5.73 µM | 20.8 µM | 42.9 µM | > 100 µM
20 | CC(O)C1(CNc2cc(Cl)nc(N)n2)CCCCC1 (stereo not drawn) | > 100 µM | > 100 µM | > 100 µM | > 100 µM | > 100 µM | > 100 µM | > 100 µM | > 100 µM | > 100 µM | > 100 µM | > 100 µM | > 100 µM
21 | COc1ccc(/C=C/C(=O)/C=C/c2ccc(OC)cc2OC)c(OC)c1 | 40 µM | 36.5 µM | 41.1 µM | 36.7 µM | 13.5 µM | 44.2 µM | 18.6 µM | 65.2 µM | 8.4 µM | 36.2 µM | 23.4 µM | 22.5 µM
22 | CCOC(=O)c1cc(-n2nnc3ccccc32)cn1C | > 10 µM | > 10 µM | > 10 µM | > 10 µM | > 10 µM | > 10 µM | > 10 µM | > 10 µM | > 10 µM | > 10 µM | > 10 µM | > 10 µM
23 | COC1CCON1C(=O)c1ccccc1 (stereo not drawn) | > 10 µM | > 10 µM | > 10 µM | > 10 µM | > 10 µM | > 10 µM | > 10 µM | > 10 µM | > 10 µM | > 10 µM | > 10 µM | > 10 µM
24 | CCCCCCCCCCCC(=O)OC[C@H](C[As](=O)(O)O)OC(=O)CCCCCCCCCCC | > 81.4 µM | 32.7 µM | 27.8 µM | 38.6 µM | > 100 µM | 10.5 µM | > 76.8 µM | 16.4 µM | > 52.5 µM | 10.5 µM | 20.8 µM | 11.9 µM

Reference: PubChem BioAssay (NCI)
